Assay results taken from the NIST ThermoML archive (doi:10.1021/acs.jced.9b00334).
Numbers after ± are expanded uncertainties.

Conditions: Liquid, Vibrating tube method

CCn1cc[n+](C)c1.CCn1cc[n+](C)c1.[Co+2].[N-]=C=S.[N-]=C=S.[N-]=C=S.[N-]=C=S [bis(1-ethyl-3-methylimidazolium) tetrathiocyanatocobaltate]
mass density [kg/m3]
Conditions | 283.1 K | 293.1 K | 303.1 K | 313.2 K | 323.2 K | 333.2 K | 343.1 K | 353.1 K | 363.1 K
100 kPa | 1286.1 ± 1.5 | 1278.7 ± 1.5 | 1271.5 ± 1.4 | 1264.4 ± 1.4 | 1257.3 ± 1.4 | 1250.3 ± 1.4 | 1243.3 ± 1.4 | 1236.4 ± 1.4 | 1229.5 ± 1.3
1000 kPa | 1286.5 ± 1.5 | 1279.1 ± 1.5 | 1272 ± 1.5 | 1264.9 ± 1.4 | 1257.8 ± 1.4 | 1250.7 ± 1.4 | 1243.7 ± 1.4 | 1236.9 ± 1.4 | 1230.1 ± 1.4
2000 kPa | 1287 ± 1.5 | 1279.6 ± 1.5 | 1272.5 ± 1.5 | 1265.3 ± 1.5 | 1258.4 ± 1.4 | 1251.3 ± 1.4 | 1244.3 ± 1.4 | 1237.5 ± 1.4 | 1230.6 ± 1.4
5000 kPa | 1288.4 ± 1.5 | 1281.1 ± 1.5 | 1273.9 ± 1.5 | 1266.8 ± 1.5 | 1259.9 ± 1.5 | 1253 ± 1.5 | 1246 ± 1.4 | 1239.2 ± 1.4 | 1232.4 ± 1.4
7000 kPa | 1289.3 ± 1.6 | 1282.1 ± 1.6 | 1274.9 ± 1.5 | 1267.9 ± 1.5 | 1260.9 ± 1.5 | 1253.9 ± 1.5 | 1247 ± 1.5 | 1240.3 ± 1.4 | 1233.5 ± 1.4
10000 kPa | 1290.6 ± 1.6 | 1283.4 ± 1.6 | 1276.3 ± 1.6 | 1269.4 ± 1.5 | 1262.5 ± 1.5 | 1255.3 ± 1.5 | 1248.6 ± 1.5 | 1241.7 ± 1.5 | 1235.1 ± 1.5
15000 kPa | 1292.8 ± 1.7 | 1285.7 ± 1.6 | 1278.6 ± 1.6 | 1271.7 ± 1.6 | 1265 ± 1.6 | 1257.9 ± 1.6 | 1251.3 ± 1.5 | 1244.3 ± 1.5 | 1237.7 ± 1.5
20000 kPa | 1295 ± 1.7 | 1287.9 ± 1.7 | 1281 ± 1.7 | 1274.1 ± 1.7 | 1267.3 ± 1.6 | 1260.1 ± 1.6 | 1253.7 ± 1.6 | 1246.9 ± 1.6 | 1240.4 ± 1.6
25000 kPa | 1297.1 ± 1.8 | 1290 ± 1.8 | 1283.1 ± 1.7 | 1276.3 ± 1.7 | 1269.6 ± 1.7 | 1262.7 ± 1.7 | 1256 ± 1.7 | 1249.4 ± 1.6 | 1243 ± 1.6
30000 kPa | 1299.1 ± 1.9 | 1292.1 ± 1.8 | 1285.4 ± 1.8 | 1278.7 ± 1.8 | 1271.9 ± 1.8 | 1265.1 ± 1.7 | 1258.3 ± 1.7 | 1251.9 ± 1.7 | 1245.6 ± 1.7
35000 kPa | 1301.1 ± 1.9 | 1294.3 ± 1.9 | 1287.6 ± 1.9 | 1280.9 ± 1.8 | 1274.1 ± 1.8 | 1267.5 ± 1.8 | 1260.6 ± 1.8 | 1254.3 ± 1.7 | 1248.2 ± 1.7
40000 kPa | 1303.2 ± 2 | 1296.3 ± 2 | 1289.6 ± 1.9 | 1282.9 ± 1.9 | 1276.4 ± 1.9 | 1269.5 ± 1.9 | 1263 ± 1.8 | 1256.7 ± 1.8 | 1250.5 ± 1.8
45000 kPa | 1305.2 ± 2.1 | 1298.4 ± 2 | 1291.7 ± 2 | 1285.1 ± 2 | 1278.6 ± 1.9 | 1272 ± 1.9 | 1265.5 ± 1.9 | 1259.1 ± 1.9 | 1252.7 ± 1.8
50000 kPa | 1307.2 ± 2.1 | 1300.5 ± 2.1 | 1294 ± 2.1 | 1287.4 ± 2 | 1280.8 ± 2 | 1274.2 ± 2 | 1267.7 ± 2 | 1261.2 ± 1.9 | 1254.9 ± 1.9
55000 kPa | 1309 ± 2.2 | 1302.5 ± 2.2 | 1295.9 ± 2.1 | 1289.5 ± 2.1 | 1282.9 ± 2.1 | 1276.4 ± 2 | 1269.6 ± 2 | 1263.6 ± 2 | 1257.2 ± 2
60000 kPa | 1311 ± 2.3 | 1304.3 ± 2.2 | 1297.9 ± 2.2 | 1291.4 ± 2.2 | 1285 ± 2.1 | 1278.4 ± 2.1 | 1271.8 ± 2.1 | 1265.7 ± 2 | 1259.4 ± 2
65000 kPa | 1312.9 ± 2.3 | 1306.3 ± 2.3 | 1299.7 ± 2.3 | 1293.3 ± 2.2 | 1287 ± 2.2 | 1280.4 ± 2.2 | 1274.1 ± 2.1 | 1267.7 ± 2.1 | 1261.6 ± 2.1
70000 kPa | 1314.8 ± 2.4 | 1308.3 ± 2.4 | 1301.7 ± 2.3 | 1295.3 ± 2.3 | 1288.9 ± 2.3 | 1282.4 ± 2.2 | 1275.9 ± 2.2 | 1269.9 ± 2.2 | 1263.7 ± 2.1
75000 kPa | 1316.6 ± 2.5 | 1310.2 ± 2.4 | 1303.7 ± 2.4 | 1297.2 ± 2.4 | 1290.9 ± 2.3 | 1284.6 ± 2.3 | 1277.9 ± 2.3 | 1272 ± 2.2 | 1265.8 ± 2.2
80000 kPa | 1318.3 ± 2.5 | 1312.2 ± 2.5 | 1305.4 ± 2.5 | 1299 ± 2.4 | 1292.8 ± 2.4 | 1286.5 ± 2.4 | 1280.2 ± 2.3 | 1274.2 ± 2.3 | 1267.8 ± 2.3
85000 kPa | 1320 ± 2.6 | 1313.9 ± 2.6 | 1307.4 ± 2.5 | 1301.1 ± 2.5 | 1294.7 ± 2.5 | 1288.6 ± 2.4 | 1282.4 ± 2.4 | 1276.1 ± 2.4 | 1270.1 ± 2.3
90000 kPa | 1321.9 ± 2.7 | 1315.6 ± 2.7 | 1309.4 ± 2.6 | 1302.9 ± 2.6 | 1296.8 ± 2.5 | 1290.4 ± 2.5 | 1284.3 ± 2.5 | 1278.2 ± 2.4 | 1272.1 ± 2.4
95000 kPa | 1323.8 ± 2.8 | 1317.5 ± 2.7 | 1311 ± 2.7 | 1304.8 ± 2.6 | 1298.7 ± 2.6 | 1292.5 ± 2.6 | 1286.1 ± 2.5 | 1280.2 ± 2.5 | 1273.8 ± 2.5
